Experimental data published in PMC10374545, “A small molecule inhibitor of PTP1B and PTPN2 enhances T cell anti-tumor immunity” (Nature Communications, 2023).
Where “and” joins values, the source holds several entries; their conditions need not be identical. Equal values may be shown once.

Assays:
[1] = tested on: p-STAT-1 and CD3 in AT3 tumors; assay: Immunohistochemistry for p-STAT-1 (Y701) and CD3 in AT3 tumors; type: in vivo, mouse; conditions: 10 mg/kg i.v.
Description: For the immunohistochemistry analysis of mammary tumor samples, samples were dissected and fixed in 10% formalin. After fixation, the tissues were embedded in paraffin and sectioned onto microscopic glass slides at 4 μm thickness per section. After deparaffinization and rehydration, the slides were subjected to antigen retrieval in Tris/EDTA buffer (pH 8.0) at 120 °C for 10 min and then cooled down to room temperature. The slides were blocked with 5% (v/v) normal goat serum (NGS) containing 0.1% (v/v) TritonX-100 in PBS for 1 h at room temperature and then incubated with primary antibody p-STAT-1 (Tyr701) (1:500; Cell Signaling Technology), or CD3ε (1:1000; Dako) at room temperature for 1 h. Slides were then washed with PBS containing 0.05% (w/v) Tween-20 and visualized using a rabbit IgG VECTORSTAIN ABC Elite and DAB (3,3′‐diaminobenzidine) Peroxidase Substrate Kit (Vector Laboratories, UK) and counterstained with haematoxylin. Slides were imaged on an Olympus CX43 microscope (Olympus, Tokyo, Japan).

[2] = tested on: AT3-OVA mammary tumors; assay: Tumor-infiltrating lymphocytes in AT3-OVA tumors of Lck-Cre;Ptpn2fl/fl mice; type: in vivo, mouse; set-up: NK cells / Tregs / MDSCs / CD4 EM / CD8 EM / B cells / IFNg TNF / GRZMB: unit not given here
Description: Tumor-bearing mice were sacrificed and tumors were excised and digested at 37 °C for 30 min using a cocktail of 1 mg/ml collagenase type IV (Worthington Biochemicals) and 0.02 mg/ml DNase I (Sigma-Aldrich) in DMEM supplemented with 2% (v/v) FBS. Cells were passed through a 70 μm cell strainer (BD Biosciences) twice and processed for flow cytometry. For assessing T cell activation, cells were surface stained with fluorophore-conjugated antibodies to CD62L, CD44, PD-1, and TIM-3. For the assessment of NK cells, B cells, myeloid-derived suppressor cells (MDSCs), dendritic cells (DCs), and tumor-associated macrophages, cells were surface stained with fluorophore-conjugated antibodies to NK1.1, TCRβ, CD19, CD11b, CD11c, F4/80, Ly6C and Ly6G. For the detection of intracellular cytokines TNF and IFNγ, T cells were stimulated with PMA (20 ng/ml; Sigma-Aldrich) and ionomycin (1 μg/ml; Sigma-Aldrich) in the presence of GolgiPlug™ and GolgiStop™ (BD Biosciences) for 4 h at 37 °C in complete T cell medium. For the intracellular detection of granzyme B, cells were processed untreated without the addition of BD GolgiPlug™ and BD GolgiStop™.

[3] = tested on: SFK Y418 phosphorylation in naive CD8+ T cells; assay: TCR signaling, p-SFK (Y418) by flow cytometry; type: cell-based, mouse; conditions: for p-SFK MFI, single replicates: 10 μM 4 h, Fig. 2D raw data, listed as CMP-182
Description: For assessing TCR signaling, single-cell suspensions of naïve (CD44^loCD62L^hi) lymph node CD8^+ T cells (isolated using the EasySep™ Mouse Naïve CD8^+ T cell Isolation Kit, Stemcell Technologies) were washed with ice-cold PBS supplemented with 2% (v/v) FBS and stained with fixable viable dye and fluorophore-conjugated antibodies to CD8 and CD4 on ice for 15 min. […] Cells were then incubated with 5 μg/ml hamster α-mouse CD3ε for 20 min on ice, washed with complete T cell medium supplemented with 1% (v/v) FBS, and then TCR cross-linked with goat α-hamster IgG (20 μg /ml, Sigma) for the indicated times at 37 °C. The reaction was terminated by the addition of paraformaldehyde (BD Cytofix™ Fixation Buffer) to a final concentration of 2% (v/v) on ice for 20 min. Fixed cells were washed in complete T cell medium/1% (v/v) FBS and permeabilised with 90% (v/v) methanol on ice for 30 min. Permeabilised cells were stained with fluorophore-conjugated antibodies to Y418 phosphorylated and activated SFKs (p-SFK; 1:100, Invitrogen) for 1 h at room temperature; p-SFK mean fluorescence intensities in CD8^+ T cells were determined by flow cytometry.

[4] = tested on: STAT-5 Y694 phosphorylation in CD8+ OT-I cells; assay: Basal and IL-2-induced STAT-5 Y694 phosphorylation in activated OT-I cells; type: cell-based, mouse; conditions: for p-STAT-5 MFI, single replicates: 1 μM, IL-2 5 ng/ml, Fig. 2F raw data, listed as CMP-182; for p-STAT-5, group mean (Mean 2): IL-2 5 ng, N 6
Description: For assessing IL-2-induced STAT-5 Y694 phosphorylation (p-STAT-5) in activated OT-I cells, single cell suspension of OT-I cells from the lymph nodes of OT-I;Ptpn2^fl/fl mice were stimulated with 1 nM […] (N4) for 16 h. […] Reactions were terminated by washing the cells with ice-cold PBS and then stained with fixable viable dye and fluorophore-conjugated antibodies to CD8 on ice for 15 min. Cells were then washed and fixed with 4% (w/w) paraformaldehyde (BD Cytofix™Fixation Buffer) at room temperature for 30 min and permeabilised with 90% (v/v) methanol at −20 °C for 30 min. Permeabilised cells were incubated with a rabbit antibody specific for p-STAT-5 (p-STAT-5; D47E7, Cell Signaling Technology) for 60 min at room temperature, washed thrice with PBS and then stained with goat anti-rabbit IgG (H + L) F(ab’)2 fragment conjugated to Alexa Fluor 647 (Jackson ImmunoResearch Labs; West Grove, PA) to monitor for p-STAT-5 in CD8^+ OT-I cells by flow cytometry.

[5] = Lck-Cre;Ptpn2fl/fl mice, individual mice (Figure 7D), listed as CMP-182
[6] = tumour-infiltrating cells, Lck-Cre;Ptpn2fl/fl mice n=6, individual mice (Figure 7C), listed as CMP-182

CC(C)(O)CCOc1ccc2cc(O)c(N3CC(=O)NS3(=O)=O)c(F)c2c1 [Compound 182, 5-(1-Fluoro-3-hydroxy-7-(3-hydroxy-3-methylbutoxy)naphthalen-2-yl)−1,2,5-thiadiazolidin-3-one 1,1-dioxide]
tumor p-STAT-1 and CD3+ T cell infiltrates in AT3 tumors of Lck-Cre;Ptpn2fl/fl mice [1]: enhanced promotion
IFNγ+TNF+ infiltrating CD8+ T cells in Lck-Cre;Ptpn2fl/fl mice ([2]; 10 mg/kg i.v.): significantly increased
GRZMB [2, 5]: 75.7 and 29.8 and 80.2 and 60 and 76.3 and 38.3
IFNg TNF [2, 5]: 26.1 and 36.3 and 38 and 37.5 and 35.3 and 36.7
TILs in AT3-OVA tumors of Lck-Cre;Ptpn2fl/fl mice ([2]; compared with untreated Lck-Cre;Ptpn2fl/fl mice): not accompanied by any significant changes
B cells [2, 6]: 170392 and 46995.6 and 105275 and 126695 and 155871 and 80840.6
CD4 EM [2, 6]: 52213.7 and 43853.2 and 131869 and 64047.3 and 133510 and 49758.5
CD8 EM [2, 6]: 137803 and 79204.9 and 701666 and 167038 and 463610 and 106200
MDSCs [2, 6]: 220000 and 235417 and 32287.6 and 56721.3 and 90563.2 and 25765.3
NK cells [2, 6]: 58097.7 and 15907.7 and 22173.4 and 86915 and 66469.7 and 20906.1
Tregs [2, 6]: 31347.8 and 26539.2 and 15097.8 and 25883.4 and 26206.9 and 21641.1
p-SFK MFI, single replicates ([3]; TCR cross-linking time 0): 92.6 and 93.9 and 88
p-SFK MFI, single replicates ([3]; TCR cross-linking time 2): 252 (2×) and 216
p-SFK MFI, single replicates ([3]; TCR cross-linking time 5): 211 and 192 and 269
p-SFK MFI, single replicates ([3]; TCR cross-linking time 10): 178 and 172 and 193
p-SFK, column mean ([3]; 10 uM, mean over all times, two-way ANOVA, Fig. 2D): 184.1
p-SFK, group mean (Mean 2) ([3]; 10 uM, time 0, N 3, Fig. 2D): 91.5
p-SFK, group mean (Mean 2) ([3]; 10 uM, time 2, N 3, Fig. 2D): 240
p-SFK, group mean (Mean 2) ([3]; 10 uM, time 5, N 3, Fig. 2D): 224
p-SFK, group mean (Mean 2) ([3]; 10 uM, time 10, N 3, Fig. 2D): 181
TCR-induced SFK Y418 phosphorylation (p-SFK) ([3]; α-CD3/IgG crosslinking): enhanced
p-STAT-5 MFI, single replicates ([4]; time 0): 5942 and 5539 and 8398 and 8753 and 4540 and 4913
p-STAT-5 MFI, single replicates ([4]; time 5): 14341 and 15725 and 15901 and 18555 and 14928 and 16788
p-STAT-5 MFI, single replicates ([4]; time 15): 16676 and 18523 and 19580 and 20940 and 16523 and 19213
p-STAT-5 MFI, single replicates ([4]; time 30): 16027 and 18696 and 19133 and 19342 and 15170 and 18785
p-STAT-5 MFI, single replicates ([4]; time 60): 13163 and 13881 and 14770 and 14670 and 10937 and 14331
p-STAT-5 MFI, single replicates ([4]; time 120): 10820 and 12152 and 10493 and 12920 and 10327 and 12862
basal and IL-2-induced STAT-5 Y694 phosphorylation (p-STAT-5) ([4]; CD8+ T cells): enhanced
p-STAT-5, column mean ([4]; CD8, IL-2 5 ng, mean over all times, two-way ANOVA, Fig. 2F): 14007
p-STAT-5, group mean (Mean 2) ([4]; Row 1 (time 0), Fig. 2F): 6348
p-STAT-5, group mean (Mean 2) ([4]; Row 2 (time 5), Fig. 2F): 16040
p-STAT-5, group mean (Mean 2) ([4]; Row 3 (time 15), Fig. 2F): 18576
p-STAT-5, group mean (Mean 2) ([4]; Row 4 (time 30), Fig. 2F): 17859
p-STAT-5, group mean (Mean 2) ([4]; Row 5 (time 60), Fig. 2F): 13625
p-STAT-5, group mean (Mean 2) ([4]; Row 6 (time 120), Fig. 2F): 11596
pSTAT5, single replicates ([4]; N4 1 nM 16 h, then 1 μM 1 h, no IL-2, Fig. 2E raw data, listed as WT+I): 60.1 and 62.9 and 57.6 and 60.3
pSTAT5%, mean of differences (B - A) ([4]; WT+I vs. WT, 4 pairs, Fig. 2E): 12.98
